What was measured:
[1] = Cytotoxicity against human HuH7 cells assessed as [3H]thymidine incorporation; type: cell-based, Huh-7
Hepatitis C virus = assay: Antiviral activity against HCV 1b in human HuH7 cells assessed as renilla luciferase activity by replicon assay; type: functional, organism-based, Hepacivirus hominis; settings: genotype 1b, Huh-7

SMILES	CC50 [1]	EC50 (Hepatitis C virus)
CCOC(=O)[C@H](C)NP(=O)(OC[C@@]1(N=[N+]=[N-])O[C@@H](n2cnc3c(=O)[nH]cnc32)[C@H](O)[C@@H]1O)Oc1cccc2ccccc12 (stereo partly drawn)	> 100 µM	16.4 µM
CCOC(=O)[C@H](C)NP(=O)(OC[C@@]1(N=[N+]=[N-])O[C@@H](n2cnc3c(=O)[nH]cnc32)[C@H](O)[C@@H]1O)Oc1ccccc1 (stereo partly drawn)	> 100 µM	> 100 µM
CC(C)OC(=O)[C@H](C)NP(=O)(OC[C@@]1(N=[N+]=[N-])O[C@@H](n2cnc3c(=O)[nH]cnc32)[C@H](O)[C@@H]1O)Oc1ccccc1 (stereo partly drawn)	> 100 µM	> 100 µM
CC(C)OC(=O)[C@H](C)NP(=O)(OC[C@@]1(N=[N+]=[N-])O[C@@H](n2cnc3c(=O)[nH]cnc32)[C@H](O)[C@@H]1O)Oc1cccc2ccccc12 (stereo partly drawn)	> 100 µM	6.1 µM
C[C@H](NP(=O)(OC[C@@]1(N=[N+]=[N-])O[C@@H](n2cnc3c(=O)[nH]cnc32)[C@H](O)[C@@H]1O)Oc1ccccc1)C(=O)OC(C)(C)C (stereo partly drawn)	> 100 µM	> 100 µM
C[C@H](NP(=O)(OC[C@@]1(N=[N+]=[N-])O[C@@H](n2cnc3c(=O)[nH]cnc32)[C@H](O)[C@@H]1O)Oc1cccc2ccccc12)C(=O)OC(C)(C)C (stereo partly drawn)	> 100 µM	> 100 µM
C[C@H](NP(=O)(OC[C@@]1(N=[N+]=[N-])O[C@@H](n2cnc3c(=O)[nH]cnc32)[C@H](O)[C@@H]1O)Oc1cccc2ccccc12)C(=O)OCc1ccccc1 (stereo partly drawn)	> 100 µM	4.3 µM
C[C@H](NP(=O)(OC[C@@]1(N=[N+]=[N-])O[C@@H](n2cnc3c(=O)[nH]cnc32)[C@H](O)[C@@H]1O)Oc1ccccc1)C(=O)OCc1ccccc1 (stereo partly drawn)	> 100 µM	> 100 µM
[N-]=[N+]=N[C@]1(CO)O[C@@H](n2cnc3c(=O)[nH]cnc32)[C@H](O)[C@@H]1O	> 100 µM	> 100 µM

From ChEMBL document CHEMBL1136889, “The application of the phosphoramidate ProTide approach confers micromolar potency against hepatitis C virus on inactive agent 4'-azidoinosine: kinase bypass on a dual base/sugar modified nucleoside” (Bioorg Med Chem Lett, 2009)
